The values below come from patent US8796313B2, “Substituted dihydroisoindolones as allosteric modulators of glucokinase” (Janssen Pharmaceutica N.V., priority 2005, dated 2014).

Experiment [1] concerns the target T1, human liver Glucokinase (GK) (Homo sapiens, UniProt P35557).
T1 construct: His6; made in house; host or cells: Escherichia coli
T1 sequence (P35557 1-466 isoform P35557-2): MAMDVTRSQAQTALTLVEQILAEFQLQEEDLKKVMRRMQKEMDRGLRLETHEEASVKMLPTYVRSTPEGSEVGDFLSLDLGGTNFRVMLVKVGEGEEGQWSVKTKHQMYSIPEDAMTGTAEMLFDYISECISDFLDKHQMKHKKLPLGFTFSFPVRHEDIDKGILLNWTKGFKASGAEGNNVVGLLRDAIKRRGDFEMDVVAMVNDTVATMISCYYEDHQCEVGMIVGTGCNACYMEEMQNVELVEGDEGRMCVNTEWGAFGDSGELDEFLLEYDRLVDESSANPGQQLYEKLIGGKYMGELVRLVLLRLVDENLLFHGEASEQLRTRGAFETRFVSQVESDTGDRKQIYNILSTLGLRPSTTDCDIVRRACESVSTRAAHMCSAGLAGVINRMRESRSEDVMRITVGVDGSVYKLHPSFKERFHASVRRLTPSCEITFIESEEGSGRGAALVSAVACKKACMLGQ
In words: Glucokinase enzyme assay, liver GK. Format: biochemical. Particulars: for EC50: concentration that produces 50% activation above vehicle control; for activation at 50 µM: increase in GK activity above vehicle control, compound 50 μM, 12 mM glucose; for EC100%: concentration that produces 100% activation above vehicle control. The text has this: (§1) An enzymatic Glucokinase (GK) assay using purified recombinant human liver/pancreas enzyme was used to evaluate the effects of potential small molecule modulators.
(§2) In this assay, GK catalyzes glucose phosphorylation in the presence of ATP. The product of this reaction, glucose-6-phosphate, was then oxidized by an excess of glucose-6-phosphate dehydrogenase to produce gluconate-6-phosphate with concomitant reduction of nicotinamide adenine dinucleotide (NAD). […] Human GK (Liver/Pancreas) was expressed in Escherichia coli as a (His) 6-tagged fusion protein and was purified by metal chelate affinity chromatography. The assay was performed in a final incubation volume of 80 μl in a 96-well clear low UV absorption plates. The incubation mixture consisted of 25 mM HEPES, 2 mM MgSO4, 1 mM dithiothreotol (DTT), 1 mg/mL bovine serum albumin (BSA), 1 mM ATP, 1 mM NAD, and 12 mM glucose, 10 units per mL glucose-6-phosphate dehydrogenase, and +/−300 ng per mL GK. For determination of the affinity (Km) and Vmax, different concentrations of glucose ranging from 0.5 mM to 40 mM were used in the assay; see Grimsby, J., Sarabu, R.; Grippo, J. F.; et. al. Science 2003, 301, 370-373. Production of reduced NAD (Nicotinamide Adenine Dinucleotide) was measured as changes in absorption at 340 nm in 96-well plate reader (Envision model #2101 Multilabel Plate reader). % Activation @ 50 μM was calculated as the percentage increase in GK activity above the vehicle control with the effective concentration of the compound being 50 μM. EC50% (μM) was calculated as the effective concentration of the compound that produces 50% activation above the vehicle control, and EC100% (μM) was calculated as the effective concentration of the compound that produces 100% activation above the vehicle control.

Experiment [2] has as its target T2, human pancreas Glucokinase (GK) (Homo sapiens, UniProt P35557).
T2 construct: His6; made in house; host or cells: Escherichia coli
T2 sequence (P35557 1-465): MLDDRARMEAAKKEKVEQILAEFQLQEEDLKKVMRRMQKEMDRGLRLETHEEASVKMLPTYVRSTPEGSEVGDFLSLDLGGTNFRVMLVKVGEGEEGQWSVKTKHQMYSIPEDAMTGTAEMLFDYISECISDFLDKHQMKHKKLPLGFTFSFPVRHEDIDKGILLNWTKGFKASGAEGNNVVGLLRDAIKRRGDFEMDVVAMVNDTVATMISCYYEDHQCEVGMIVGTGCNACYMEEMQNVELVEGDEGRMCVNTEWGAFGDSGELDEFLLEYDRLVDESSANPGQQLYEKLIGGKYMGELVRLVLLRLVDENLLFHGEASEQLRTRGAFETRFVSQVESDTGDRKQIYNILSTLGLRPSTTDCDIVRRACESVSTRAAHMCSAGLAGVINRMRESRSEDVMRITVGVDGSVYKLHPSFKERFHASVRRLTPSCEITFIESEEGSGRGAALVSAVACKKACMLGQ
In words: Glucokinase enzyme assay, pancreas GK. Format: biochemical. The conditions noted are these: for EC50: concentration that produces 50% activation above vehicle control; for EC100%: concentration that produces 100% activation above vehicle control; for activation at 50 µM: increase in GK activity above vehicle control, compound 50 μM, 12 mM glucose.
From the text: as §1
as §2, with “Production of reduced NAD (Nicotinamide Adenine Dinucleotide) was measured as changes in absorption at 340 nm in 96-well plate reader (Envision model #2101 Multilabel Plate reader). % Activation @ 50 μM was calculated as the percentage increase in GK activity above the vehicle control with the effective concentration of the compound being 50 μM.” left out

Turning to `O=C(CCC1c2ccccc2C(=O)N1Cc1ccccc1)Nc1nccs1` (centres unmarked) [Compound 1, 3-(2-Benzyl-3-oxo-2,3-dihydro-1H-isoindol-1-yl)-N-thiazol-2-yl-propionamide], in experiment [1], the EC50 came to 15000 nM and the activation at 50 µM was found to be 46%.

For the compound `COC(=O)c1ccc(NC(=O)CCC2c3ccccc3C(=O)N2Cc2ccccc2)nc1` (centres unmarked) [Compound 2, 6-[3-(2-Benzyl-3-oxo-2,3-dihydro-1H-isoindol-1-yl)-propionylamino]-nicotinic acid methyl ester], in experiment [1], the EC50 stood at 1290 nM and the “EC100%” value is 8.39 µM.

For the compound `O=C(CCC1c2ccccc2C(=O)N1Cc1ccccc1)Nc1ccccn1` (centres unmarked) [Compound 3, 3-(2-Benzyl-3-oxo-2,3-dihydro-1H-isoindol-1-yl)-N-pyridin-2-yl-propionamide], in experiment [1], the EC50 was 2520 nM and the “EC100%” value came to 8.78 µM.

In experiment [1], `O=C(NCCC1c2ccccc2C(=O)N1Cc1ccccc1)Nc1nccs1` (centres unmarked) [Compound 4, 1-[2-(2-Benzyl-3-oxo-2,3-dihydro-1H-isoindol-1-yl)-ethyl]-3-thiazol-2-yl-urea] came in with an activation at 50 µM of 15%.

`O=C(CCC1c2ccccc2C(=O)N1Cc1ccccc1)Nc1ccc(C(=O)O)cn1` (centres unmarked) [Compound 5, 6-[3-(2-Benzyl-3-oxo-2,3-dihydro-1H-isoindol-1-yl)-propionylamino]-nicotinic acid]: in experiment [2], the EC50 stood at 2900 nM, the “EC100%” value worked out at 18 µM and the activation at 50 µM came to 306%. In experiment [1], the EC50 was determined as 1900 nM, the “EC100%” value turned out to be 8 µM and the activation at 50 µM is 138%.

`COC(=O)c1ccc(NC(=O)CC[C@@H]2c3c(F)cccc3C(=O)N2Cc2ccc(F)cc2)nc1` [Compound 50, (R)-6-{3-[7-Fluoro-2-(4-fluoro-benzyl)-3-oxo-2,3-dihydro-1H-isoindol-1-yl]-propionylamino}-nicotinic acid methyl ester] registered an activation at 50 µM in experiment [2] of 38.6%.

As to `COC(=O)c1ccc(NC(=O)CC[C@H]2c3c(F)cccc3C(=O)N2Cc2ccc(F)cc2)nc1` [Compound 51, (S)-6-{3-[7-Fluoro-2-(4-fluoro-benzyl)-3-oxo-2,3-dihydro-1H-isoindol-1-yl]-propionylamino}-nicotinic acid methyl ester], in experiment [2], the EC50 came to 8.9 nM, the “EC100%” value was 0.082 µM and the activation at 50 µM was 223%.
